Laboratory results published in the supplement of paper PMC10307832.

Columns and labels:
Test in all cases: relative viability (nuclei count vs DMSO), 5 days (fraction); higher = more cells survive
Alisertib + Luminespib = compound: COc1cc(Nc2ncc3c(n2)-c2ccc(Cl)cc2C(c2c(F)cccc2OC)=NC3)ccc1C(=O)O [Alisertib] + CCNC(=O)c1noc(-c2cc(C(C)C)c(O)cc2O)c1-c1ccc(CN2CCOCC2)cc1 [Luminespib] (partner 0.01 µM)
Method in brief: (§1)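 After 5 days of treatment, lung cancer cells in 1536-well plates were fixed and stained in a single step (final 0.05% Triton X-100, 1% formaldehyde, 1 ug/ml Hoechst) and their nuclei counted on 4× images. Treatment had been applied by pin tool the day after seeding as one drug alone or as a fixed anchor-drug dose with five library-drug doses (not always all listed) in √10 steps. Relative viability is the nuclei count of treated wells divided by that of vehicle wells, and values are medians of duplicate plates.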

Alisertib + OSI-027 = compound: COc1cc(Nc2ncc3c(n2)-c2ccc(Cl)cc2C(c2c(F)cccc2OC)=NC3)ccc1C(=O)O [Alisertib] + COc1cccc2cc(-c3nc([C@H]4CC[C@H](C(=O)O)CC4)n4ncnc(N)c34)[nH]c12 [OSI-027] (partner 0.5 µM)
Method in brief: as §1

Alisertib + Lapatinib = compound: COc1cc(Nc2ncc3c(n2)-c2ccc(Cl)cc2C(c2c(F)cccc2OC)=NC3)ccc1C(=O)O [Alisertib] + CS(=O)(=O)CCNCc1ccc(-c2ccc3ncnc(Nc4ccc(OCc5cccc(F)c5)c(Cl)c4)c3c2)o1 [Lapatinib] (partner 2 µM)
Method in brief: as §1

Alisertib + Linsitinib = compound: COc1cc(Nc2ncc3c(n2)-c2ccc(Cl)cc2C(c2c(F)cccc2OC)=NC3)ccc1C(=O)O [Alisertib] + C[C@]1(O)C[C@@H](c2nc(-c3ccc4ccc(-c5ccccc5)nc4c3)c3c(N)nccn32)C1 [Linsitinib] (partner 1 µM)
Method in brief: as §1

Cell Line	relative viability (Alisertib + Luminespib; first compound 0.005 µM)	relative viability (Alisertib + Luminespib; first compound 0.01581 µM)	relative viability (Alisertib + Luminespib; first compound 0.05 µM)	relative viability (Alisertib + Luminespib; first compound 0.1581 µM)	relative viability (Alisertib + Luminespib; first compound 0.5 µM)	relative viability (Alisertib + OSI-027; first compound 0.005 µM)	relative viability (Alisertib + OSI-027; first compound 0.01581 µM)	relative viability (Alisertib + OSI-027; first compound 0.05 µM)	relative viability (Alisertib + OSI-027; first compound 0.1581 µM)	relative viability (Alisertib + OSI-027; first compound 0.5 µM)	relative viability (Alisertib + Lapatinib; first compound 0.005 µM)	relative viability (Alisertib + Lapatinib; first compound 0.01581 µM)	relative viability (Alisertib + Lapatinib; first compound 0.05 µM)	relative viability (Alisertib + Lapatinib; first compound 0.1581 µM)	relative viability (Alisertib + Lapatinib; first compound 0.5 µM)	relative viability (Alisertib + Linsitinib; first compound 0.005 µM)	relative viability (Alisertib + Linsitinib; first compound 0.01581 µM)	relative viability (Alisertib + Linsitinib; first compound 0.05 µM)	relative viability (Alisertib + Linsitinib; first compound 0.1581 µM)	relative viability (Alisertib + Linsitinib; first compound 0.5 µM)
NCI-H2087	0.191	0.136	0.155	0.16	0.115	0.542	0.521	0.204	0.111	0.098	1.16	0.724	0.245	0.188	0.183	0.866	0.669	0.276	0.236	0.228
NCI-H2228	0.111	0.117	0.112	0.144	0.186	0.589	0.466	0.27	0.0993	0.115	0.731	0.562	0.182	0.115	0.209	0.55	0.936	0.317	0.12	0.095
NCI-H838	0.386	0.343	0.252	0.135	0.133	0.334	0.397	0.311	0.16	0.119	0.827	0.673	0.391	0.257	0.164	0.962	0.845	0.573	0.278	0.202
NCI-H661	0.94	0.875	0.611	0.377	0.296	0.667	0.557	0.438	0.282	0.285	0.519	0.439	0.323	0.342	0.279	0.635	0.389	0.304	0.323	0.282
NCI-H520	0.237	0.202	0.197	0.209	0.193	0.253	0.221	0.204	0.18	0.182	0.76	0.449	0.276	0.258	0.242	0.805	0.667	0.423	0.308	0.22
EBC-1	–	–	–	–	–	–	–	–	–	–	0.224	0.21	0.188	0.178	0.152	0.678	0.731	0.211	0.179	0.147
NCI-H727	0.366	0.325	0.557	0.24	0.169	0.573	0.466	0.421	0.482	0.374	0.75	0.68	0.497	0.384	0.314	0.415	0.366	0.216	0.242	0.194
NCI-H1299	–	–	–	–	–	–	–	–	–	–	0.939	0.904	0.586	0.452	0.295	0.936	0.932	0.71	0.271	0.189
LK-2	0.19	0.165	0.184	0.18	0.187	0.224	0.232	0.185	0.166	0.17	0.842	0.87	0.49	0.344	0.242	0.519	0.454	0.337	0.206	0.175
NCI-H1993	0.891	0.791	0.558	0.456	0.492	0.55	0.46	0.435	0.547	0.512	0.81	0.694	0.537	0.539	0.5	0.685	0.659	0.606	0.613	0.578
NCI-H2170	0.518	0.777	0.317	0.318	0.207	0.721	0.629	0.644	0.323	0.201	0.268	0.25	0.275	0.221	0.187	–	–	–	–	–
NCI-H1648	–	–	–	–	–	0.258	0.242	0.23	0.252	0.239	–	–	–	–	–	–	–	–	–	–
LCLC-103H	0.949	0.883	0.278	0.311	0.269	0.427	0.438	0.473	0.201	0.204	–	–	–	–	–	1.05	1.03	1.03	0.235	0.297
NCI-H441	0.369	0.364	0.223	0.218	0.242	0.532	0.446	0.222	0.22	0.215	–	–	–	–	–	0.504	0.333	0.243	0.129	0.129
NCI-H1650	0.19	0.194	0.171	0.196	0.177	0.565	0.501	0.278	0.108	0.166	0.768	0.222	0.203	0.175	0.228	–	–	–	–	–
SW 900	0.16	0.167	0.182	0.188	0.176	0.532	0.399	0.543	0.167	0.111	–	–	–	–	–	–	–	–	–	–
IA-LM	–	–	–	–	–	–	–	–	–	–	0.853	0.91	0.309	0.212	0.184	0.478	0.659	0.324	0.223	0.0931
HCC-366	–	–	–	–	–	0.973	0.696	0.0686	0.04	0.0334	1.02	0.31	0.0171	0.0127	0.0262	0.688	0.611	0.043	0.0079	0.0142
NCI-H522	1.2	1	0.493	0.331	0.426	0.684	0.618	0.69	0.532	0.433	–	–	–	–	–	–	–	–	–	–
HCC-78	–	–	–	–	–	0.536	0.354	0.244	0.244	0.241	0.743	0.783	0.428	0.205	0.19	0.412	0.418	0.183	0.15	0.187
